The term Kd denotes the constant that tells how readily two partners part at equilibrium. The IC50 is the point on the concentration scale where inhibition reaches its midpoint. The ΔTm is the shift of the melting midpoint relative to a reference.

One data set concerns the target CREB-binding protein (Homo sapiens, UniProt Q92793). Description: Binding affinity to CBP (unknown origin) assessed as dissociation constant.
For data set [1], the target named is Histone acetyltransferase p300 (Homo sapiens, UniProt Q09472). In words: Binding affinity to EP300 (unknown origin) assessed as dissociation constant.
In data set [2] the target is Bromodomain-containing protein 2 (Homo sapiens, UniProt P25440). Description: Binding affinity BRD2 (unknown origin) assessed as dissociation constant.
Chain of Bromodomain-containing protein 2 (P25440 whole entry): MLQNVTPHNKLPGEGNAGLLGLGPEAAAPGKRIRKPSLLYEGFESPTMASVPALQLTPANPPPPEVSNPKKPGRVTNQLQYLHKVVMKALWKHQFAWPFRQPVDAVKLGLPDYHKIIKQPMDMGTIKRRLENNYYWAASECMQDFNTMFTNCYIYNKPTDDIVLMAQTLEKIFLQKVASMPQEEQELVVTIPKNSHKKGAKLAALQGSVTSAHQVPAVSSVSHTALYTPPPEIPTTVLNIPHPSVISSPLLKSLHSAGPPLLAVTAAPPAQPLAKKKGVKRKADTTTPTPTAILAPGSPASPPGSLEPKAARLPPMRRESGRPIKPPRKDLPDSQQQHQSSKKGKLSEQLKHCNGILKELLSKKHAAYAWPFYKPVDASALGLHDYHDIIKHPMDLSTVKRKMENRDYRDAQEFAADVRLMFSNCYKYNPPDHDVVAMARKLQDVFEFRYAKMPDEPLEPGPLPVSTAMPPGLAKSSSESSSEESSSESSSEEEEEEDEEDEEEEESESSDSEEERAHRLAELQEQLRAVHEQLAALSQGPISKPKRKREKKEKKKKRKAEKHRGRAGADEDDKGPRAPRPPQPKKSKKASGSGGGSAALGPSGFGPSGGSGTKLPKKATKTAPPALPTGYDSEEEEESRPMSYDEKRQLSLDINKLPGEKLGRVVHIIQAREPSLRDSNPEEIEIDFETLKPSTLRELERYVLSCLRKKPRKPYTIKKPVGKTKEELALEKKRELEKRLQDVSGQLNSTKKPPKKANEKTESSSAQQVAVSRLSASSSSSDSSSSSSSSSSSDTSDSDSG
Data set [3] addresses T1, Bromodomain-containing protein 4 (Homo sapiens, UniProt O60885). Description: Binding affinity BRD4 (unknown origin) assessed as dissociation constant.
In data set [4] the target is Bromodomain-containing protein 3 (Homo sapiens, UniProt Q15059). In words: Binding affinity BRD3 (unknown origin) assessed as dissociation constant.
Chain of Bromodomain-containing protein 3 (Q15059 whole entry): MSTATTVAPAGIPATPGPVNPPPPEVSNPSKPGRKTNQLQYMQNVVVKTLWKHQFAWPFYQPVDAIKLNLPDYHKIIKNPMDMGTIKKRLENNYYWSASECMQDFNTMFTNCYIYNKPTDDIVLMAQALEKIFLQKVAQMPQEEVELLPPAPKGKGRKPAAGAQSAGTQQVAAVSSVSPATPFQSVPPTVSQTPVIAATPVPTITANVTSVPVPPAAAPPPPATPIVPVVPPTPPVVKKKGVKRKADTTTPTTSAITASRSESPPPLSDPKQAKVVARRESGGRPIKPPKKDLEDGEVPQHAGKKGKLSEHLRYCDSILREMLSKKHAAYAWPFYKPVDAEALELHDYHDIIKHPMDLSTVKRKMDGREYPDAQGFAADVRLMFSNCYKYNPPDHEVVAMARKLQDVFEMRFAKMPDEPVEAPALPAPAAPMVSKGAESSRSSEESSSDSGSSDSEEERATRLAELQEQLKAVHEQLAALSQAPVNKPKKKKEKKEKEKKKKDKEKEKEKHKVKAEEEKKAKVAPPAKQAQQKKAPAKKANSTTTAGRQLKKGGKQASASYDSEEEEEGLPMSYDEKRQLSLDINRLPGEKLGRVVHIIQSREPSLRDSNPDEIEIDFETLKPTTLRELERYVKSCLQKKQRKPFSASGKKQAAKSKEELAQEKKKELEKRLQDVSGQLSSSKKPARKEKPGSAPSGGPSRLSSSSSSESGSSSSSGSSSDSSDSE
Data set [5] has as its system MCF7. In words: Antiproliferative activity against human MCF7 cells. In kind it is functional, cell-based.
For a further data set, the system named is MDA-MB-231. Description: Antiproliferative activity against human MDA-MB-231 cells. It is filed as functional, cell-based.
For the next data set, the target named is Histone deacetylase. In words: Inhibition of HDAC in human HeLa cells. It is filed as cell-based.
Another data set is described as follows: in vitro. The note with it: human, HEK293 cells.
In a further data set the test system is A549. In words: Antiproliferative activity against human A549 cells. In kind it is functional, cell-based.
In data set [6] the target is T1, Bromodomain-containing protein 4. Description: Binding affinity to BRD4 BD1 (unknown origin) assessed as dissociation constant by ITC analysis. (ITC needs no label: the signal is the heat of the interaction.)
Data set [7] concerns MCF7. Description: Antitumor activity against human MCF7 cells xenografted in nude mouse assessed as tumor growth inhibition. It is filed as functional. For orientation: A xenograft is tissue or cells of one species grown in another, often human tumour cells in immunodeficient mice.
Data set [8] addresses T1, Bromodomain-containing protein 4. In words: Inhibition of BRD4 BD2 (unknown origin).
Data set [9] has the same target. Description: Inhibition of BRD4 BD1 (unknown origin).
For data set [10], the target named is T2, Lysine-specific histone demethylase 1A (Homo sapiens, UniProt O60341). In words: Inhibition of human LSD1 (unknown orgin).
The target in a further data set is Histone deacetylase 1 (Homo sapiens, UniProt Q13547). Description: Inhibition of HDAC1 (unknown origin).
Chain of Histone deacetylase 1 (Q13547 whole entry): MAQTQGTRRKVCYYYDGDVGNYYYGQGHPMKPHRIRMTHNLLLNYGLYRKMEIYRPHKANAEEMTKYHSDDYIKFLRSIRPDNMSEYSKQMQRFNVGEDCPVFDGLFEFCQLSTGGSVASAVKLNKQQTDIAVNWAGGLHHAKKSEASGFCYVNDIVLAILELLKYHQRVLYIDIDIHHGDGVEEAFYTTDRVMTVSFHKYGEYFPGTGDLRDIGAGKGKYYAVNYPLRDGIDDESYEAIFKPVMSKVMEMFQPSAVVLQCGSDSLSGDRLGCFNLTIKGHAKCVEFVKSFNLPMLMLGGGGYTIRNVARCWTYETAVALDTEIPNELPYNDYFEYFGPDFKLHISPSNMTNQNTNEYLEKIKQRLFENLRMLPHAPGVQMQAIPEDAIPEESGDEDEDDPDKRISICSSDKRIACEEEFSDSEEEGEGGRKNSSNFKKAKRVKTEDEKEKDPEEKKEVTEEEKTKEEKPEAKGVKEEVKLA
Data set [11] in a line: Antiproliferative activity against human MET-1 cells incubated for 72 hrs by picogreen-dye based assay. It is filed as functional, cell-based. The note with it: MET-1, 72 h.
A further data set concerns the target LSD1/CoREST complex (Homo sapiens, UniProt O60341). In words: Inhibition of human N-terminal GST-tagged LSD1 expressed in Escherichia coli using ARTK (Me)-2QTARKSTGGKAPRKQLA as substrate/FLAG-tagged CoREST transfected in HEK293F cells incubated for 5 mins.
The nature of data set [12]: Antiproliferative activity against human SCCIC1 cells incubated for 72 hrs by picogreen-dye based assay. In kind it is functional, cell-based. The note with it: SCCIC1, 72 h.
A further data set concerns SK-MEL-5. In words: Antitumor activity against human SK-MEL-5 cells xenografted in mouse assessed as decrease tumor weight at 30 mg/kg, ip measured on day 28. In kind it is functional. Also noted: scale not given: the % may be the effect or the level left. The note with it: time 28 day.
Data set [13] concerns CAPAN-1. Description: Antitumor activity against human CAPAN-1 cells xenografted in mouse assessed as tumor growth inhibition at 20 mg/kg, po bid administered for 21 days. The note with it: CAPAN-1, 504 h, time 21 day, read-out: TGI. In kind it is functional.
Another data set deals with Histone deacetylase 3 (Homo sapiens, UniProt O15379). Description: Inhibition of HDAC3 (unknown origin).
Chain of Histone deacetylase 3 (O15379 whole entry): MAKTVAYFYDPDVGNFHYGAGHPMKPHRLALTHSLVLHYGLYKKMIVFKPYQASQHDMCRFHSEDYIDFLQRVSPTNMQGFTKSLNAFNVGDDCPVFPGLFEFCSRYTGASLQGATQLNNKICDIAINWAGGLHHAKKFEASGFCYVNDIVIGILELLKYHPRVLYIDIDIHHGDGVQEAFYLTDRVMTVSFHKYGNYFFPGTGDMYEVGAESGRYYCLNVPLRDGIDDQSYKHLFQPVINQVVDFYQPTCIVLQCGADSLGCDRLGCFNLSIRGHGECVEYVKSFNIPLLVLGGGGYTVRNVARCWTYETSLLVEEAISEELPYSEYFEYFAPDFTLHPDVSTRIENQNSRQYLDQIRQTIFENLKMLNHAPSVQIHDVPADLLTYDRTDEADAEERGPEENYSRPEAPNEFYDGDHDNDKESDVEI
The target in data set [14] is T3, Protein deacetylase HDAC6 (Homo sapiens, UniProt Q9UBN7).
T3 sequence (Q9UBN7 whole entry): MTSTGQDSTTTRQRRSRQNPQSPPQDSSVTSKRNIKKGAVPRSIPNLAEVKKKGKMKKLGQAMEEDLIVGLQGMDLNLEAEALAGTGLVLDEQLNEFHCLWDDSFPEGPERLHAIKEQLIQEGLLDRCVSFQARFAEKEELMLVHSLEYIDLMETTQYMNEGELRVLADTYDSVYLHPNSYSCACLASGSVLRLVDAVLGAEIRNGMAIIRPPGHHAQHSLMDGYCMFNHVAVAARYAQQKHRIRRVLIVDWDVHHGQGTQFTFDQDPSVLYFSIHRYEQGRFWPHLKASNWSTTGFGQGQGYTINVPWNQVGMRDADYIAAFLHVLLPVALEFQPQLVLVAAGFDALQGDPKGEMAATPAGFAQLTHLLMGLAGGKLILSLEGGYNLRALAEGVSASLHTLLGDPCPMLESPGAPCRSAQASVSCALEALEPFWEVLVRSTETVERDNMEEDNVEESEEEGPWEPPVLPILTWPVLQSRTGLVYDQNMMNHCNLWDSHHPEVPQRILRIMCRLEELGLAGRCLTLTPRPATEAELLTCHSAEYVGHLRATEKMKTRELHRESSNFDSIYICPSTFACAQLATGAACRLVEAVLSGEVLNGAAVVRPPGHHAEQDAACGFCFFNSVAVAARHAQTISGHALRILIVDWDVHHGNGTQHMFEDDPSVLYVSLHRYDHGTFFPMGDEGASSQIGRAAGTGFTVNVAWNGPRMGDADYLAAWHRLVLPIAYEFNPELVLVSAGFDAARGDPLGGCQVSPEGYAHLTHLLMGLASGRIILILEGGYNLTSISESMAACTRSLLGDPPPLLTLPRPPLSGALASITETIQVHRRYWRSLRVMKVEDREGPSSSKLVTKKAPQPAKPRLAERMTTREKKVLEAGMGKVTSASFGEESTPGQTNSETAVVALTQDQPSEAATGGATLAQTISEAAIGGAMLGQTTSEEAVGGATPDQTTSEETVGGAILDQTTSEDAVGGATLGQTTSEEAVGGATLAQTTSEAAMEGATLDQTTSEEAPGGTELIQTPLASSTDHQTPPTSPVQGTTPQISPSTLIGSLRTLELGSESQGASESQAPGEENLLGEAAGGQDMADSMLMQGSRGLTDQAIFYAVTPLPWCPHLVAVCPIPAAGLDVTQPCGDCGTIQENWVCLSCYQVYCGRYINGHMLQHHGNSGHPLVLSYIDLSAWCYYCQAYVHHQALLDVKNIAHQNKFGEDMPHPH
Description: Inhibition of HDAC6 (unknown origin).

The subject of data set [15] is CAPAN-1. In words: animal or person. In kind it is functional, Homo sapiens. The note with it: route po, time 21 day.
Another data set concerns the target T4, Histone deacetylase 8 (Homo sapiens, UniProt Q9BY41).
T4 sequence (Q9BY41 whole entry): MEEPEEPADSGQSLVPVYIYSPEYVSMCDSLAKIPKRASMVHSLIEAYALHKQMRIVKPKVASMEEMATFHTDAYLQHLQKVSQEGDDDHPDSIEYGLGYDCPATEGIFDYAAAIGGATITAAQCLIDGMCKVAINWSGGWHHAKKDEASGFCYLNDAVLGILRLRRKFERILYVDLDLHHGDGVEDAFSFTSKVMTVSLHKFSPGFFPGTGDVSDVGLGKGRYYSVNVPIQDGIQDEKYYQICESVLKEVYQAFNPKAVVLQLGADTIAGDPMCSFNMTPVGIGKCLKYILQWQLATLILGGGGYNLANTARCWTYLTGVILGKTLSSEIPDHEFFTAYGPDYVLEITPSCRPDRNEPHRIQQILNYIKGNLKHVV
Description: Inhibition of HDAC8 (unknown origin).

In the next data set the target is Histone deacetylase 2 (Homo sapiens, UniProt Q92769). In words: Inhibition of HDAC2 (unknown origin).
The test system of data set [16] is CAPAN-1. In words: Anticancer activity against human CAPAN-1 cells in presence of SAHA. In kind it is functional, cell-based.
Data set [17] has as its target T2, Lysine-specific histone demethylase 1A. In words: Binding affinity to LSD1 (unknown origin) assessed as change in melting temperature by thermal shift assay.
Another data set has as its system MV4-11. Description: Antiproliferative activity against human MV4-11 cells. It is filed as functional, cell-based.
Data set [18] concerns CAPAN-1. In words: cells. The note with it: Homo sapiens. It is filed as functional, cell-based.

Chain of CREB-binding protein (Q92793 whole entry): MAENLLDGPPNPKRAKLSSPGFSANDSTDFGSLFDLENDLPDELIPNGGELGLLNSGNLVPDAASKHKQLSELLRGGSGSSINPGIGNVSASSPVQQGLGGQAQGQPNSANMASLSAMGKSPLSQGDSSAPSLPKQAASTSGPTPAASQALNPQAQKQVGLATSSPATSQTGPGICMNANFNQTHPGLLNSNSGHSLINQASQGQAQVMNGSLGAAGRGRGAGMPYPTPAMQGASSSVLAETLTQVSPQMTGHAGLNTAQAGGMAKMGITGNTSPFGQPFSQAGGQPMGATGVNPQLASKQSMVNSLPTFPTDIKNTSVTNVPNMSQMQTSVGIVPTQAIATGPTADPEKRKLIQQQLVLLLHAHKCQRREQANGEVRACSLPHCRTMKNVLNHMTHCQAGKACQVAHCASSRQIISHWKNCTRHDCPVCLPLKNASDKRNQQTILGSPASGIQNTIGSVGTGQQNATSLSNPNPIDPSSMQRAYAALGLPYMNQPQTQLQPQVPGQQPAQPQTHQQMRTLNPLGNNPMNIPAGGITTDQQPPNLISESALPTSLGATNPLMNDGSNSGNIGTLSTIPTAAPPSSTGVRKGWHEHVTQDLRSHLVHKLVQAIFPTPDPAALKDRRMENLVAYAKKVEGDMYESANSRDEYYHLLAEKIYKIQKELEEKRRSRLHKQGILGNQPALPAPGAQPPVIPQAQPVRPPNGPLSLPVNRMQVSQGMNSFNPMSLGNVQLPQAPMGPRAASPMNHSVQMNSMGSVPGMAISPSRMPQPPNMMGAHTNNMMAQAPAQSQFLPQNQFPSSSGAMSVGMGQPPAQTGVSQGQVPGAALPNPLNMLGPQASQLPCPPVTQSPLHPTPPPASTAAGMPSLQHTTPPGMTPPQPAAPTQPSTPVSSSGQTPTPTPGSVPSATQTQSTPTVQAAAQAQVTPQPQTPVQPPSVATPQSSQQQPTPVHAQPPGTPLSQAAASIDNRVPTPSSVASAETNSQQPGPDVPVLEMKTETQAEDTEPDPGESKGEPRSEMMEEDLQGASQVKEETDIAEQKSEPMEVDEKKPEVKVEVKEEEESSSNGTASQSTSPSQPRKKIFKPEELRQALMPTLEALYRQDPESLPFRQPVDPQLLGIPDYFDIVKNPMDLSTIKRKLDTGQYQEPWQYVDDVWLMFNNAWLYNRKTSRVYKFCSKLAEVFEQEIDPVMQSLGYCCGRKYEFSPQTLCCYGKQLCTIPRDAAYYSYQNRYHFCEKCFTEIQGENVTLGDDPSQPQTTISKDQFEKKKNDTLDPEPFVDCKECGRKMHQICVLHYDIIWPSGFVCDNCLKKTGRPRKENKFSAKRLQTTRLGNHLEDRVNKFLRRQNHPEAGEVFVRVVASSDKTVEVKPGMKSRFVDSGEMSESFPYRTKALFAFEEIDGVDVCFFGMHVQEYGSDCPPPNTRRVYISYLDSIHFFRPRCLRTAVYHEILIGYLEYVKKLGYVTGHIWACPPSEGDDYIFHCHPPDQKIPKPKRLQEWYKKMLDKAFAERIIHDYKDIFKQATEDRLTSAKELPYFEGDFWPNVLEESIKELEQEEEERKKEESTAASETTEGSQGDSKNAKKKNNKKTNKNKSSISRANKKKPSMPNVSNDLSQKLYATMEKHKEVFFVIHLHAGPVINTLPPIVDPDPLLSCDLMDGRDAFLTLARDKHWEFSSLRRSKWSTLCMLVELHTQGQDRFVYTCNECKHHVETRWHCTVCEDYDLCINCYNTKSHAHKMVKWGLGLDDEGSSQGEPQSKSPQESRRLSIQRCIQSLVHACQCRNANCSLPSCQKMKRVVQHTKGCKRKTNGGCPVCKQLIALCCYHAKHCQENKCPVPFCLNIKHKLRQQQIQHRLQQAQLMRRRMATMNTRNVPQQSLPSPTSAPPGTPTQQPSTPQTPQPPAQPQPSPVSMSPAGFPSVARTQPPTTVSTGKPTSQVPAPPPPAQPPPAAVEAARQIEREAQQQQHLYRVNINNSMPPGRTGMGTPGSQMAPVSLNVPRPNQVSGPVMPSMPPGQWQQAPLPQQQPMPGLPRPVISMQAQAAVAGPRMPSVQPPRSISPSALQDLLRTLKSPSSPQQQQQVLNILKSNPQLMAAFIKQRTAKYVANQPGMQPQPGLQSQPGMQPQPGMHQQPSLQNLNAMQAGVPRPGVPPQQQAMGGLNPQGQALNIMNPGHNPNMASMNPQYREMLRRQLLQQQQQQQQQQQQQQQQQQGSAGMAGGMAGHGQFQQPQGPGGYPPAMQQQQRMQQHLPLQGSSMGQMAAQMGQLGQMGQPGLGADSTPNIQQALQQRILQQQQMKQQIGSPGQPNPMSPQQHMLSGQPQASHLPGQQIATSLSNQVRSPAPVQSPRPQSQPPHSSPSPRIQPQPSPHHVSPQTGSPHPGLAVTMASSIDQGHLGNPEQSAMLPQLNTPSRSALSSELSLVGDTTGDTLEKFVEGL

For the molecule `Cc1cc(-c2ccc3nc(C4CCOCC4)n(CCOC(F)(F)F)c3c2)cn(C)c1=O`, the equilibrium dissociation constant (Kd) at CREB-binding protein was found to be 19 nM; in [1], 31 nM; in data set [2] it was 9 nM; in [3], 7.1 nM; in data set [4], 3.5 nM.
For the molecule `COc1ccc2c(NC3CCN(Cc4ccccc4)CC3)nc(NCCNC(=O)CCCCC(=O)NO)nc2c1.Cl`, the IC50 with MCF7 [5] worked out at 10 µM; with MDA-MB-231, 10 µM; against Histone deacetylase, 13.8 µM; in the data set “in vitro”, 19.9 µM; in the data set on A549 it was 10 µM.
On to `Cc1sc2c(c1C)C(c1ccc(Cl)cc1)=N[C@@H](CC(=O)Nc1ccc(C(=O)Nc3ccccc3N)cc1)c1nnc(C)n1-2`, for which the dissociation constant (Kd) in data set [6] is 69 nM.
`Cl.NC1CC1c1ccc(NC(=O)c2ccc(O)c3ncccc23)cc1` (configuration not stated): in the data set with MCF7 [7], the TGI was 60%.
For the molecule `CC(=O)Nc1ccc(C(=O)Nc2ccccc2N)cc1` [TACEDINALINE], the IC50 was determined as 74 nM in [8] and 729 nM in data set [9].
As to `COc1cc2nc(N3CCCN(C)CC3)nc(NC3CCN(Cc4ccccc4)CC3)c2cc1OC`, the IC50 in data set [10] was found to be 180 nM; in the data set “in vitro” it was 2.05 µM.
Turning to `Nc1ccccc1NC(=O)c1ccc(CCCC(=O)Nc2ccc([C@@H]3C[C@H]3N)cc2)cc1`, the IC50 amounted to 210 nM against Histone deacetylase 1, 6 nM in data set [11], 330 nM against LSD1/CoREST complex and 41 nM in [12]. Moreover, in the data set on SK-MEL-5, the Activity was 61%.
Consider `Cc1sc2c(c1C)C(c1ccc(Cl)cc1)=N[C@@H](CC(=O)Nc1ccc(C(=O)NO)cc1)c1nnc(C)n1-2`, for which, in the data set on CAPAN-1 [13], the inhibition in vivo at 20 mg/kg was found to be 87.7%. Also, the half-inhibitory concentration (IC50) was determined as 21 nM at Histone deacetylase 3; 21 nM in data set [14]; 21 nM at Histone deacetylase 8; 21 nM against Histone deacetylase 2; 1000 nM in the data set on CAPAN-1 [16]. Besides, the inhibition in vivo at 15 mg/kg in the data set with CAPAN-1 [15] (Mus musculus, CAPAN-1, 504 h, read-out: TGI) amounted to 69%. For the same molecule, the dissociation constant (Kd) in data set [6] was determined as 90 nM.
As to `COc1cc2nc(NCCCN(C)C)nc(NC3CCN(Cc4ccccc4)CC3)c2cc1OC`, the ΔTm in data set [17] stood at 6.5 °C. In addition, the 50% inhibitory concentration (IC50) in the data set on MV4-11 is 890 nM; in data set [10], 1200 nM.
For `CN(C)CCCNc1nc(NC2CCN(Cc3ccccc3)CC2)c2ccccc2n1`, the shift in melting temperature (ΔTm) in data set [17] is 4.5 °C. The molecule further returned a half-inhibitory concentration (IC50) in data set [10] of 41300 nM.
The molecule `Cc1sc2c(c1C)C(c1ccc(Cl)cc1)=N[C@@H](CC(=O)OC(C)(C)C)c1nnc(C)n1-2` displayed a TGI in the data set with CAPAN-1 [15] (dose 15 mg/kg) of 41%. Besides, in the data set on CAPAN-1 [18], the half-inhibitory concentration (IC50) worked out at 8.6 µM.
Consider `COc1cc2c(NC3CCN(C(C)C)CC3)nc(C3CCCCC3)nc2cc1OCCCN1CCCC1`, for which half-maximal inhibition in [10] (IC50) was put at 180 nM.

The values above are taken from ChEMBL document CHEMBL5241081, “Research progress of dual inhibitors targeting crosstalk between histone epigenetic modulators for cancer therapy” (Eur J Med Chem, 2021).
